{
  "source": "patent US12391660B2",
  "about": "“Heteroaromatic acetamide derivative, and preparation and use thereof” (Hangzhou Westan Pharmaceutical Technology Co., Ltd, priority 2019, dated 2025)",
  "test_system": "asthmatic rats",
  "experiment": "Ovalbumin-induced asthma rat model (HE staining, lung tissue inflammation area, airway inflammation score)",
  "assay_type": "in vivo, SD rats",
  "description": "4. Effects of Compounds on Ovalbumin-Induced Asthma in Mouse and Rat Models\nSPF-grade SD male rats (purchased from Zhejiang Academy of Medical Sciences, license number SCXK (Zhejiang) 2019-0002) with a body weight of 160-180 g; and SPF-grade female BABL/c mice (purchased from Zhejiang Weitong Lihua Experimental Animals Technology Co., Ltd., license number SCXK (Zhejiang) 2019-0001) with a body weight of 16-18 g were used. The above animals were raised by the Experimental Animal Center of Zhejiang Academy of Traditional Chinese Medicine.\nFormulation of compound solution: compound was vortexed in a solvent system, dissolved by ultrasound, and prepared into a solution at a corresponding concentration, which was prepared just before use (the solvent system was composed of 5% Solutol HS 15, 5% DMSO and 90% physiological saline).\nBABL/c mice or SD rats were randomly divided into: normal control group, model control group, dexamethasone group (0.72 mg/kg), and the respective test compound groups (one group for each dose), 10 mice in each group; 6 rats in each group.\nSensitization of rats: On Day 1 and Day 8, the model control group and the respective drug administration groups were intraperitoneally injected with 1 ml of 10% OVA sensitizing solution, and the normal group was intraperitoneally injected with an equal volume of normal saline.\nRat: from Day 15, the dexamethasone group and the respective test compound groups were intraperitoneally injected, 20 minutes before challenge, with the corresponding drugs with an injection volume of 0.3 ml/100 g; the model control group was intraperitoneally injected, 20 minutes before challenge, with an equal volume of solvent system; and the normal control group was not treated. Administration was conducted for 7 consecutive days. […]\nThe rat was anesthetized with 10% urethane at 1.3 ml/100 g volume, and the left lung tissue was taken and fixed in 4% neutral formaldehyde, paraffin-embedded according to routine operation, sectioned for HE staining. […] NIS-Elements D 3.2 software was used to manually integrate and measure the total area of lung tissue sections and the inflammation area under all fields of view, the total areas under each field of view were accumulated, and the percentage of the cumulative area of inflammation in the total area was calculated, wherein the percentage of inflammation area=cumulative area of inflammation/total area×100%.\nAll data were expressed as mean±standard deviation (x±s), and the data were processed by SPSS 20.0 statistical software. […]",
  "key": {"[1]": {"conditions": "intraperitoneal injection, vs model group, P<0.05, 0.01"}},
  "data": [
    {"smiles": "N#Cc1ccc(NC2(C(=O)N3CCN(c4ccc(C(F)(F)F)cc4)CC3)CCCC2)cc1", "note": "[Compound 1, 4-((1-(4-(4-(trifluoromethyl)phenyl)piperazine-1-carbonyl)cyclopentyl)amino)benzonitrile]", "values": [
      {"measurement": "lung tissue inflammation and inflammatory cell infiltration around the airway (HE x40)", "setting": "compared with the model group", "result": "significant improvement"},
      {"measurement": "airway inflammation score", "setting": "[1]", "result": "significantly decreased"},
      {"measurement": "lung tissue inflammation area", "setting": "[1]", "result": "significantly decreased"}
    ]}
  ]
}
